The results in this text go back to PubChem BioAssay AID200 (DTP/NCI, 2004).

The assay relates to B6C3F1 mice, B16 melanoma ip, median survival T/C. Briefly: NCI In Vivo Anticancer Drug Screen. Data for tumor model B16 Melanoma (intraperitoneal) in B6C3F1 mice. Conditions: endpoint: median survival time, schedule: Q01DX009 (ip), higher = longer survival. The gist of the method:
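Transplantable tumor in mice; treated vs vehicle control groups; survival or tumor size measured; value = T/C ratio.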

Setting [1] is: dose: 25.0 mg/kg/injection, vehicle: saline.
[2] abbreviates: dose: 50.0 mg/kg/injection, vehicle: saline.
Where [3] appears, read: dose: 50.0 mg/kg/injection, vehicle: suspension in saline.
The mark [4] stands for this setting: dose: 100.0 mg/kg/injection, vehicle: saline.
The mark [5] stands for this setting: dose: 200.0 mg/kg/injection, vehicle: saline.
Setting [6] is: dose: 1.56 mg/kg/injection, vehicle: saline with Tween-80.
The mark [7] stands for this setting: dose: 3.12 mg/kg/injection, vehicle: saline with Tween-80.
[8] abbreviates: dose: 6.25 mg/kg/injection, vehicle: saline with Tween-80.
Setting [9] is: dose: 12.5 mg/kg/injection, vehicle: saline with Tween-80.
The mark [10] stands for this setting: dose: 25.0 mg/kg/injection, vehicle: saline with Tween-80.
[11] abbreviates: dose: 50.0 mg/kg/injection, vehicle: saline with Tween-80.
Where [12] appears, read: dose: 100.0 mg/kg/injection, vehicle: Klucel (hydroxypropylcellulose) (HPC).
Where [13] appears, read: dose: 200.0 mg/kg/injection, vehicle: Klucel (hydroxypropylcellulose) (HPC).
[14] abbreviates: dose: 400.0 mg/kg/injection, vehicle: Klucel (hydroxypropylcellulose) (HPC).
The mark [15] stands for this setting: dose: 100.0 mg/kg/injection, vehicle: saline with Tween-80.
Setting [16] is: dose: 12.5 mg/kg/injection, vehicle: Klucel (hydroxypropylcellulose) (HPC).
Setting [17] is: dose: 25.0 mg/kg/injection, vehicle: Klucel (hydroxypropylcellulose) (HPC).
Where [18] appears, read: dose: 50.0 mg/kg/injection, vehicle: Klucel (hydroxypropylcellulose) (HPC).
Setting [19] is: dose: 200.0 mg/kg/injection, vehicle: saline with Tween-80.

“And” between values parts separate entries of the source, which are not always exact repeats. Equal entries are not always repeated. Toxic doses and inconclusive results are not listed. Where a SMILES comes first, the peptide text is derived from it.

For the molecule `Cc1c2ccccc2c(C)c2c1cc(C(=O)O)c1ccccc12`, the T/C runs as follows: (dose: 25.0 mg/kg/injection, vehicle: sodium bicarbonate) 99 % of control; (dose: 50.0 mg/kg/injection, vehicle: sodium bicarbonate) 105 % of control; (dose: 100.0 mg/kg/injection, vehicle: sodium bicarbonate) 108 % of control; (dose: 200.0 mg/kg/injection, vehicle: sodium bicarbonate) 109 % of control; (dose: 400.0 mg/kg/injection, vehicle: sodium bicarbonate) 101 % of control.

With `COc1cc2c3c(cccc3c1)C(=O)N(CCN(C)C)C2=O`, the T/C runs as follows: (dose: 5.0 mg/kg/injection, vehicle: saline with Tween-80) 119 % of control and 95 % of control; (dose: 10.0 mg/kg/injection, vehicle: saline with Tween-80) 115 % of control and 100 % of control; (dose: 20.0 mg/kg/injection, vehicle: saline with Tween-80) 110 % of control and 100 % of control and 105 % of control; (dose: 40.0 mg/kg/injection, vehicle: saline with Tween-80) 109 % of control and 121 % of control and 104 % of control; (dose: 80.0 mg/kg/injection, vehicle: saline with Tween-80) 107 % of control.

For the molecule `Cn1cnc([N+](=O)[O-])c1Sc1ncn[nH]1`, the T/C reads like this: (dose: 12.5 mg/kg/injection, vehicle: saline) 108 % of control; (dose: 12.5 mg/kg/injection, vehicle: suspension in saline) 109 % of control; under setting [1], 102 % of control; (dose: 25.0 mg/kg/injection, vehicle: suspension in saline) 115 % of control; under setting [2], 108 % of control; under setting [3], 100 % of control. Moreover, the T/C was 108 % of control under setting [4]; 101 % of control (dose: 100.0 mg/kg/injection, vehicle: suspension in saline); 108 % of control under setting [5]; 102 % of control (dose: 200.0 mg/kg/injection, vehicle: suspension in saline).

With `O=C1C2CC=CCC2C(=O)N1SC(Cl)(Cl)Cl` (stereo not given), the T/C is 90 % of control and 97 % of control (dose: 0.78 mg/kg/injection, vehicle: saline with Tween-80); 97 % of control under setting [6]; 89 % of control under setting [7]; 93 % of control under setting [8]; 88 % of control under setting [9]; 89 % of control under setting [10].

In the case of `O/N=C/c1ccccc1O.O/N=C/c1ccccc1O.[Cu]`, the T/C runs as follows: under setting [6], 94 % of control and 95 % of control; under setting [7], 110 % of control and 86 % of control; under setting [8], 106 % of control; under setting [9], 113 % of control and 88 % of control; under setting [10], 95 % of control; under setting [11], 95 % of control.

Regarding `CC(C)CC(NC(=O)CNC(=O)C(CC(C)C)NC(=O)CN)C(=O)O` (stereo not given) (H-GLGL-OH; configuration not given here), the T/C under setting [12] is 120 % of control, the T/C under setting [13] was 118 % of control and the T/C under setting [14] was 122 % of control.

`C=CCCC(=O)CCCC(=O)O[C@@H]1[C@@H]2[C@H](CC1(C)C)[C@H](O)[C@@]13O[C@@H]1[C@H](O)[C@@]1(CO1)[C@@]23C`: the T/C by setting is: (dose: 3.12 micrograms/kg/injection, vehicle: saline) 97 % of control; (dose: 6.25 micrograms/kg/injection, vehicle: saline) 91 % of control; (dose: 12.5 micrograms/kg/injection, vehicle: saline) 103 % of control; (dose: 25.0 micrograms/kg/injection, vehicle: Klucel (hydroxypropylcellulose) (HPC)) 98 % of control; (dose: 25.0 micrograms/kg/injection, vehicle: saline) 93 % of control; (dose: 50.0 micrograms/kg/injection, vehicle: Klucel (hydroxypropylcellulose) (HPC)) 91 % of control. Besides, the T/C (dose: 50.0 micrograms/kg/injection, vehicle: saline) was 97 % of control; the T/C (dose: 100.0 micrograms/kg/injection, vehicle: saline) is 98 % of control; the T/C (dose: 200.0 micrograms/kg/injection, vehicle: Klucel (hydroxypropylcellulose) (HPC)) was 98 % of control; the T/C (dose: 400.0 micrograms/kg/injection, vehicle: Klucel (hydroxypropylcellulose) (HPC)) is 96 % of control.

Regarding `CCN(Cc1ccc(Cl)c(Cl)c1)c1ccc2nc(N)nc(N)c2c1C`, the T/C (dose: 3.12 mg/kg/injection, vehicle: water) was 112 % of control and 123 % of control; the T/C (dose: 3.13 mg/kg/injection, vehicle: distilled water + Tween-80) is 120 % of control; the T/C (dose: 6.25 mg/kg/injection, vehicle: water) was 124 % of control; the T/C (dose: 12.5 mg/kg/injection, vehicle: water) is 92 % of control; the T/C (dose: 25.0 mg/kg/injection, vehicle: water) was 150 % of control.

Regarding `O=[n+]1c2ccccc2n([O-])c2cc(Cl)ccc21`, the T/C runs as follows: under setting [9], 111 % of control; under setting [10], 109 % of control; under setting [11], 116 % of control; under setting [15], 124 % of control.

Take `O=C(O)C1(NO)CCCCC1`: the T/C runs as follows: under setting [16], 103 % of control and 105 % of control; under setting [17], 111 % of control and 98 % of control; under setting [18], 111 % of control and 105 % of control; under setting [12], 110 % of control and 107 % of control; under setting [13], 103 % of control and 108 % of control; under setting [14], 113 % of control and 106 % of control.

As for `CCc1ncnc2cc(OCC3CO3)c(OC)cc12` (stereo not given), the T/C (dose: 6.25 mg/kg/injection, vehicle: suspension in saline) was 118 % of control and the T/C under setting [3] is 117 % of control.

`CN(CN1C(=O)CCC1=O)CN1C(=O)CCC1=O`: the T/C under setting [1] is 98 % of control, the T/C under setting [2] was 101 % of control, the T/C under setting [4] was 105 % of control and the T/C under setting [5] is 115 % of control.

For `Nc1ccc(S(=O)(=O)c2ccc(N)cc2)cc1`, the T/C is 95 % of control (dose: 6.25 mg/kg/injection, vehicle: Klucel (hydroxypropylcellulose) (HPC)); 103 % of control under setting [8]; 106 % of control under setting [16]; 93 % of control under setting [9]; 96 % of control under setting [17]; 101 % of control under setting [10]. The T/C under setting [18] was 92 % of control; the T/C under setting [11] was 93 % of control and 100 % of control; the T/C under setting [12] was 90 % of control; the T/C under setting [15] was 87 % of control and 98 % of control; the T/C under setting [19] is 88 % of control; the T/C (dose: 400.0 mg/kg/injection, vehicle: saline with Tween-80) was 86 % of control.

On to `CCCCC(NC(=O)C(C)NC(=O)OCc1ccccc1)C(=O)O` (stereo not given), for which the T/C reads like this: under setting [12], 101 % of control; under setting [13], 99 % of control; under setting [14], 94 % of control.

Take `Cc1ccc(N)c(N)c1`: the T/C runs as follows: under setting [10], 95 % of control; under setting [11], 99 % of control; under setting [15], 102 % of control; under setting [19], 104 % of control.

As for `CNC(=O)Oc1ccc(S(=O)(=O)c2ccc(OC(=O)NC)cc2)cc1`, the T/C was 109 % of control under setting [8]; 95 % of control under setting [9]; 88 % of control and 98 % of control under setting [10]; 90 % of control and 96 % of control under setting [11]; 86 % of control under setting [15].
